In patent publication US7468391B2, “Methods for treating retinoid responsive disorders using selective inhibitors of CYP26A and CYP26B” (Allergan, Inc., priority 2003, dated 2008):
“And” between values parts separate entries of the source, which are not always exact repeats. Equal values may be shown once. “Also recorded” adds a separate entry of the source. Read-outs that look alike come from different tables or passages of the source.

Columns and labels:
hacyp26a = assay: Taqman RT-PCR of CYP26A expression in hamster flank organ sebaceous gland; type: in vivo
Experimental: (§1) Because CYP26 functions in cells to reduce retinoic acid receptor signaling, the effect of inhibiting CYP26 to increase retinoic acid receptor signaling, and thereby reduce differentiation of hamster sebaceous gland differentiation, was examined. The expression of CYP26A and CYP26B in hamster flank organ sebaceous gland was determined using Taqman RT-PCR. Hamsters were treated as described above and sacrificed at various time points (1 day to 3 weeks). The flank organs were excised and placed under a dissecting microscope. Sebaceous glands were removed and put into liquid nitrogen immediately. RNAs were isolated from the glands using Trizol reagents (Invitrogen; San Diego, Calif.) as described by the manufacturer. The RNAs were treated with DNase to remove contaminating genomic DNAs and further purified with the DNA-free kit (Ambion; Austin, Tex.). Quantitative RT-PCR was performed on an ABI 7700 machine using Invitrogen's Platinum qRT-PCR kit with CYP26-specific primers and probes.

[1] = system: hamster flank organ sebaceous gland; assay: Hamster flank organ sebaceous gland differentiation (model for acne); type: in vivo, male golden syrian hamsters; conditions: oral gavage, 6 days/week for 4 weeks
Experimental: Differentiation of hamster flank organ sebaceous gland is a model system for development of acne. To determine the effectiveness of selective CYP26B inhibitors for treating acne, such inhibitors were tested in this model system. To confirm that this model system can predict the effectiveness of a compound in reducing acne, 13-cis retinoic acid (acutane) was used as a positive control.
(§2) For the hamster model system, male golden syrian hamsters were fed LabDiet#5002 rodent diet and housed individually on a 14/10 hr light/dark cycle. For treatment, the animals were randomized according to body weight and they were also weighed at each treatment so that the drug doses could be adjusted accordingly. The animals were treated daily by oral gavage, 6 days/week for 4 weeks. At the end of treatments, the animals were sacrificed by carbon dioxide inhalation. The flank organs were then excised and spread on a small piece of index card which was placed in a histology cassette for fixation in 10% buffered formaldehyde. The specimen was divided into 5 equally spaced portions to make paraffin blocks and one 5-micrometer H&E sections was prepared from each block. The two sections that contained the most sebaceous glands were used to determine the average acini area of the flank organ. A video camera attached to a standard microscope with the 4× objective was used to capture the images of the sebaceous glands. Computer programs Videoshop and NIH Image 1.63 were used to quantify the acini areas. All the recognizable sebaceous glands in the two sections were analyzed and the means were derived for comparison among various treatments. In all studies, blood samples were also collected for determining the levels of serum triglyceride using a triglyceride GPO Trinder kit from Sigma Chemicals (St. Louis, Mo.).

hacyp26b = assay: Taqman RT-PCR of CYP26B expression in hamster flank organ sebaceous gland; type: in vivo
Experimental: as §1

[2] = type: in vivo
Experimental: as §2
Experimental results showing the effect of various retinoid compounds on differentiation of sebaceous gland in […] flank organ were generated.

RAR β [3] = target: T1, RAR β (Homo sapiens, UniProt P10826); assay: RAR β Kd; type: binding; conditions: last item of cell EC50/(EFFICACY)/Kd
T1 sequence (P10826 1-455): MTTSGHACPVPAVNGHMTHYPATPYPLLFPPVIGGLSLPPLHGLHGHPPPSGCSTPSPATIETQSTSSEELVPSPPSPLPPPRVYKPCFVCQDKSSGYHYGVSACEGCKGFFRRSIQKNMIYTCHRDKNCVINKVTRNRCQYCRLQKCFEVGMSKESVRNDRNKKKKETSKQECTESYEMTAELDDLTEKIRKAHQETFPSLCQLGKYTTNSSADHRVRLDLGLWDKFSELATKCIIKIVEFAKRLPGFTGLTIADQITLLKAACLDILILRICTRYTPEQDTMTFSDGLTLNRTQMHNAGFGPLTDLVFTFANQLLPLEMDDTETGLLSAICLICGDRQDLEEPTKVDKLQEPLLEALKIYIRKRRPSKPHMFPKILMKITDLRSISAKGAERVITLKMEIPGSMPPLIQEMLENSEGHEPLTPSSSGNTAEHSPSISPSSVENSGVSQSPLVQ

RAR β [4] = target: T1, RAR β; assay: RAR β EC50/(efficacy); type: cell-based
RAR γ [5] = target: T2, RAR γ (Homo sapiens, UniProt P13631); assay: RAR γ Kd; type: binding; conditions: last item of cell EC50/(EFFICACY)/Kd
T2 sequence (P13631 1-454): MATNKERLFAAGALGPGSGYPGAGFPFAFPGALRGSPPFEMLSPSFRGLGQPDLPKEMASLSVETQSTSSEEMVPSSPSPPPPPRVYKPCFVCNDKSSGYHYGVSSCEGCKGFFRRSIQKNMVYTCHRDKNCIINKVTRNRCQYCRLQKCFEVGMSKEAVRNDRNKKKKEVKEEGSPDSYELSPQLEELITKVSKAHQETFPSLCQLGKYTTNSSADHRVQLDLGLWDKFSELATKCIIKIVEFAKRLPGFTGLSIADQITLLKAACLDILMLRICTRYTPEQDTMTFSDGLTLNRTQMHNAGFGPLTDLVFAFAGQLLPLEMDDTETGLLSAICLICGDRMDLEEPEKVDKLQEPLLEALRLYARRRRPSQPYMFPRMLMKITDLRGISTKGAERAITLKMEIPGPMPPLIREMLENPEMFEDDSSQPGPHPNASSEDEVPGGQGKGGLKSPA

RAR α [6] = target: T3, RAR α (Homo sapiens, UniProt P10276); assay: RAR α Kd; type: binding; conditions: last item of cell EC50/(EFFICACY)/Kd
T3 sequence (P10276 1-462): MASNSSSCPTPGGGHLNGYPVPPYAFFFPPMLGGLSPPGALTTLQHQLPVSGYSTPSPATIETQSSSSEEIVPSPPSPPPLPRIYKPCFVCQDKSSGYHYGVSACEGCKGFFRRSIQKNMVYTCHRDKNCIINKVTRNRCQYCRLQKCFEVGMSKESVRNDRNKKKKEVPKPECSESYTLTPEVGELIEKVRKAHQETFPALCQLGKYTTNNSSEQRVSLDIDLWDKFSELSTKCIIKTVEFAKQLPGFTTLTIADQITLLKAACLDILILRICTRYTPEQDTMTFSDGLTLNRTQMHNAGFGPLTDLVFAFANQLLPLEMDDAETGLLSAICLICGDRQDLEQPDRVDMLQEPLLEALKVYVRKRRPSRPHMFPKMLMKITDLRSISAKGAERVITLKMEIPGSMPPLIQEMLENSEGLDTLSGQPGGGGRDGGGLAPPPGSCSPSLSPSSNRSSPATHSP

CYP26A (P450RAI-1) = target: T4, CYP26A (P450RAI-1) (Homo sapiens, UniProt O43174); assay: Cell-based inhibition of RA metabolism in CYP26A stably transfected HeLa cells; conditions: stably transfected HeLa cells, [3H]-RA, 3 hours at 37° C.; read-out: P450RAI-1 Whole cell IC50
T4 construct: expressed in transfected cells; host or cells: HeLa
T4 sequence (O43174 1-497): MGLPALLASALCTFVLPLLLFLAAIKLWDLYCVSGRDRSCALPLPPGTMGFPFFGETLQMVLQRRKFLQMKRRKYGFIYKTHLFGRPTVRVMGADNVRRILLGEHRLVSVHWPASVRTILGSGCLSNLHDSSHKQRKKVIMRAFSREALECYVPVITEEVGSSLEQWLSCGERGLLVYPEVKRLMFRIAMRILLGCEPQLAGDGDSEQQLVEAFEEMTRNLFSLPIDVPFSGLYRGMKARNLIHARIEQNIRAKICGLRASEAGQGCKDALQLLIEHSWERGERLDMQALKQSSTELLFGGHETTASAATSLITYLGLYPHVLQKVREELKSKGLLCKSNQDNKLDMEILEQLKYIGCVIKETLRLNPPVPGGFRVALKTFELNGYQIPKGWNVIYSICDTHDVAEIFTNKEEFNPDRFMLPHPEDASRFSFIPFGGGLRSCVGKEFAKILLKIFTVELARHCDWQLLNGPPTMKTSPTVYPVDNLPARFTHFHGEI
In short: (§3)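 Stably transfected HeLa cells (5×10^5/well) in MEM with 10% FBS and 0.05 μCi [3H]-RA, compounds at 10, 1 or 0.1 μM final, 3 h at 37° C. Retinoids extracted by modified Bligh-Dyer (methylene chloride); aqueous radioactivity counted; ID50 for 50% inhibition of RA metabolism derived from log-transformed data.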

RAR γ [7] = target: T2, RAR γ; assay: RAR γ EC50/(efficacy); type: cell-based
RAR α [8] = target: T3, RAR α; assay: RAR α EC50/(efficacy); type: cell-based; conditions: value in brackets of cell EC50/(EFFICACY)/Kd
CYP26B (P450RAI-2) = target: T5, CYP26B (P450RAI-2) (Homo sapiens, UniProt Q9NR63); assay: Cell-based inhibition of RA metabolism in CYP26B stably transfected HeLa cells; conditions: stably transfected HeLa cells, [3H]-RA, 3 hours at 37° C.; read-out: P450RAI-2 Whole cell IC50
T5 construct: expressed in transfected cells; host or cells: HeLa
T5 sequence (Q9NR63 1-512): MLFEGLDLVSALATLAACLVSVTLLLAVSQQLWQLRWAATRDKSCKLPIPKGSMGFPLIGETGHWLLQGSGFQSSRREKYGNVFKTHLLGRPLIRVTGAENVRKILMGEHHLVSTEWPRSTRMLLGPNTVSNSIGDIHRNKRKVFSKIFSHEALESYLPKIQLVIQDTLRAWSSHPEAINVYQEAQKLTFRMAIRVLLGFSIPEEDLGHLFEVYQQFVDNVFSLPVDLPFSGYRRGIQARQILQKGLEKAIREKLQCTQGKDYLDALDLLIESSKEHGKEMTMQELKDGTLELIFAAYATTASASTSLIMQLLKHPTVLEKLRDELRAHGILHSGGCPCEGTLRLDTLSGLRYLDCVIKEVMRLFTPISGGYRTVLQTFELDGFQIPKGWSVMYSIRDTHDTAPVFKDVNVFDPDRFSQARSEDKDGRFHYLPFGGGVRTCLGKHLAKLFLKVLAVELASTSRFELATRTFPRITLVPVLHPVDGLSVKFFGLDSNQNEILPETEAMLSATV
In short: as §3

human patients = conditions: Kuijpers, et al. (1998); cited from earlier work
[9] = first item of cell EC50/(EFFICACY)/Kd
[10] = value in brackets of cell EC50/(EFFICACY)/Kd

CC1=C(/C=C/C(C)=C/C=C/C(C)=C\C(=O)O)C(C)(C)CCC1 [13-cis retinoic acid]
hacyp26a Ct (hacyp26a; HFO-9, 1w, listed as 13cisRA): 29.8 and 29.6
hacyp26a Relative to Veh (hacyp26a; HFO-9, 1w, listed as 13cisRA): 12.1× and 13.9×
hacyp26a Ct (hacyp26a; HFO-9, 2w): 30.1
hacyp26a Relative to Veh (hacyp26a; HFO-9, 2w): 9.8×
hacyp26a Ct (hacyp26a; HFO-9, 3w, listed as 13cisRA): 33 and 31.9
hacyp26a Ct (hacyp26a; HFO-9, 4d): 28.1
hacyp26a Relative to Veh (hacyp26a; HFO-9, 4d): 22.6×
CYP26A expression in hamster flank sebaceous gland (hacyp26a; Table 2): induced
sebaceous gland differentiation in hamster flank organ [1]: effective in reducing sebaceous gland differentiation; also recorded: appeared to be more effective
hacyp26b Ct (hacyp26b; HFO-9, 1w, listed as 13cisRA): 30.5 and 31.8
hacyp26b Ct (hacyp26b; HFO-9, 2w): 34.1
hacyp26b Relative to veh (hacyp26b; HFO-9, 2w): 0.6×
hacyp26b Ct (hacyp26b; HFO-9, 3w, listed as 13cisRA): 36.7 and 35.7
hacyp26b Relative to veh (hacyp26b; HFO-9, 3w, listed as 13cisRA): 0.1× and 0.2×
hacyp26b Ct (hacyp26b; HFO-9, 4d): 30.6
hacyp26b Relative to veh (hacyp26b; HFO-9, 4d): 13×
CYP26B expression in hamster flank sebaceous gland (hacyp26b; Table 2): induced
toxicity ([2]; hamster, in vivo): lower toxicity levels

C#CCc1c(C)c(C#Cc2ccc(CC(=O)O)cc2)cc(C(C)(C)C)c1OC(C)C [Compound 47, [4-(5-tert-Butyl-4-isopropoxy-2-methyl-3-prop-2-ynyl-phenylethynyl)-phenyl]-acetic acid]
Kd (RAR β [3]): 4.47 µM
EC50 (RAR β [4]; [9]): 38 nM
RAR β (EFFICACY) (RAR β [4]; [10]): 59
Kd (RAR γ [5]): 1950 nM
Kd (RAR α [6]): 2240 nM
IC50 (CYP26A (P450RAI-1)): 100 nM
EC50 (RAR γ [7]; [9]): 125 nM
RAR γ (EFFICACY) (RAR γ [7]; [10]): 66
RAR α (EFFICACY) (RAR α [8]): 10
IC50 (CYP26B (P450RAI-2)): 8.8 µM

Clc1cccc(C(c2ccc3[nH]cnc3c2)n2ccnc2)c1 (stereo not shown) [liarozole]
effect of treatment in human patients (human patients): amelioration of psoriasis

CC1=C(/C=C/C(C)=C\C=C\C(C)=C/C(=O)O)C(C)(C)CCC1=O [4-oxo-13-cis RA]
sebaceous gland differentiation in hamster flank organ [1]: appeared to be more effective
toxicity ([2]; hamster flank organ study): lower toxicity levels
